# Experiment: gradient 5% acetonitrile 3 min, to 50% in 2 min, to 85% in 15 min, held 3 min, 100 µL/min
# Settings: column: Zorbax Extend-C18 2.1 x 50 mm; eluents: water / acetonitrile, 0.1% formic acid
# How it was run: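 Pure standards were analyzed in mixtures of ~100 molecules using HPLC coupled to a quadrupole time-of-flight mass spectrometer, in both positive and negative ionization mode. Separation used a Zorbax Extend-C18 column (2.1 × 50 mm, 1.8 μm) at 100 μL/min, with water and acetonitrile each containing 0.1% formic acid. Dead and dwell volumes were 40 μL and 900 μL, and data were collected over 3 months. Retention time was read from computationally picked adduct peaks, each inspected manually.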
row,RP-LC retention time [s],Compound
1,838,Cc1ccccc1CN1C(=O)CN(S(C)(=O)=O)CC1(C)C(=O)NCc1ccccc1 (configuration not stated)
2,623,COc1ccccc1C(=O)N1CCN(c2cnn3c(C4CC4)nnc3c2)CC1
3,959,CCc1nc2cc(-c3noc(-c4ccncc4)n3)ccc2o1
4,960,CC(=O)Nc1nc(-c2ccc(S(=O)(=O)N3CCN(c4ccccc4)CC3)cc2)cs1
5,901,COc1ccc(C(=O)N2CCC3(CC2)N=C(c2cccc(Br)c2)NO3)cc1F
6,750,COCc1nc(C2CCN(C(=O)C3(c4ccccc4)CC3)C2)no1 (configuration not stated)
7,808,CCCN(CC1CCOC1)C(=O)c1cc(F)cc(F)c1 (configuration not stated)
8,834,CCOC(=O)CNC(=O)NCc1cccn1Cc1cccc(C)c1
9,1070,Clc1cccc(-c2nnc(Cc3nc(-c4ccccc4)no3)o2)c1
10,565,CCOC(=O)c1cnc2c(C)cc(C)cc2c1NCCCN(C)C
11,703,Cc1ccc2c(=O)c(C(=O)N3CCCC3)cn(CC(=O)Nc3cc(F)ccc3F)c2n1
12,740,CCn1cnc(S(=O)(=O)N2CCCC(C(=O)NC3CCCCCC3)C2)c1 (configuration not stated)
13,797,CN(Cc1ccoc1)C(=O)Nc1ccc(F)cc1
14,1060,Cc1cccc(-c2noc(Cn3nc(-c4ccc(F)cc4)ccc3=O)n2)c1
15,781,CCOc1ccccc1C(=O)N1CCN(c2cc(-c3cccs3)[nH]n2)CC1
16,609,O=C(c1cccc(N2CCNC(c3ccccc3)C2)n1)N1CCCN(c2ncccn2)CC1 (configuration not stated)
17,736,COc1ccc(-c2nc3c(C)cccn3c2Nc2ccc(C)cc2)cc1
18,871,O=C(CC1CCN(C(=O)C2CCCCC2)CC1)NCCc1c[nH]c2ccc(Cl)cc12
19,830,CCCC(=O)N1CCc2c([nH]c3ccccc23)C12C(=O)Nc1ccccc12 (configuration not stated)

row,RP-LC retention time [s],Compound
1,1210,O=C1COc2cc(Cl)ccc2N1Cc1nc(-c2ccc(F)c(Br)c2)no1
2,892,O=C(NCc1nc(-c2cccs2)no1)c1ccc(Br)cc1
3,903,O=C(Nc1nc2ccc(Cl)cc2s1)C1CCN(C(=O)C2Sc3ccccc3NC2=O)CC1 (configuration not stated)
4,908,Cc1cc(NS(=O)(=O)c2cc(-c3ccn[nH]3)sc2C)ccc1Br
5,791,Cc1ccc(F)cc1-n1cc(C(=O)O)c2ccccc2c1=O
6,940,CC(C)c1noc(-c2cc(=O)n(CC(=O)NCc3ccccc3)c3ccccc23)n1
7,940,CCOc1ccc(-c2csc(C)n2)cc1S(=O)(=O)Nc1ccc(OC)cc1
8,809,CCSc1nnc(-c2nn(C)c3c2CN(C(=O)Nc2ccc(OC)cc2)CC3)n1CC
9,774,Cc1[nH]c(C(=O)N2CCC(CC(=O)NCc3ccc4c(c3)OCO4)CC2)c(C)c1C
10,717,COc1ccc(-c2nc3ncccn3c2NCc2ccc(Cl)cc2)cc1OC
11,874,O=S(=O)(c1ccc2nncn2c1)N(Cc1ccccc1F)c1cc(F)cc(F)c1
12,991,Fc1ccc(Cn2cc(-c3noc(C4CCCC4)n3)nn2)cc1
13,757,O=C(Nc1ccccc1)C1CCN(S(=O)(=O)c2cc(C(=O)N3CCOCC3)cs2)CC1
14,593,COc1cc(CN2CCC[C@H]2c2nc(C3CCOCC3)n[nH]2)cc(OC)c1
15,737,Cc1ccc(-c2ccc(N3CCCC(C(=O)NCC(C)C)C3)nn2)cc1C (configuration not stated)
16,855,COc1cccc(CNC(=O)C2(C)CCCN(C(=O)Nc3cccc(C)c3C)C2)c1 (configuration not stated)
17,1120,COc1ccc(F)cc1S(=O)(=O)N1CCC(F)(c2nc(CC(C)C)no2)CC1
18,758,Cc1cccc(-c2nocc2CCC(=O)O)c1
